Values of other authors as cited in US12410178B2, “Small cationic ortho-5,15-di-heteroaryl-porphyrin derivatives and their applications in photoinactivation of microorganisms” (UNIVERSIDADE DE COIMBRA, priority 2019, dated 2025).

Key:
human HeLa cells = settings: phototoxicity in vitro; read-out: concentration at which 50% of human HeLa cells are killed; cited from earlier work
flies = settings: in vivo; cited from earlier work

Row | SMILES | IC50 (human HeLa cells) | phototoxicity towards flies (flies)
1 | CCn1cc[n+](CC)c1C1=c2ccc3[n]2[Zn@]24[n]5c(ccc5C(c5ccccc5)=C5C=CC(=[N+]52)C=3)C=C2C=CC1=[N+]24 [Formula (III), zinc(II) phenylporphinate] | 1200 nM | 
2 | C[n+]1ccc(-c2c3nc(c(-c4cc[n+](C)cc4)c4ccc([nH]4)c(-c4ccccc4)c4nc(c(-c5ccccc5)c5ccc2[nH]5)C=C4)C=C3)cc1 [Formula (IV), meso-(di-cis[4-N-methyl-pyridyl]cis-diphenyl-porphyrin)] |  | phototoxic towards flies
